Results from patent US11111245B2, “Derivatives of N-cycloalkyl/heterocycloalkyl-4-(imidazo[1,2-a]pyridine)pyrimidin-2-amine as therapeutic agents” (Aucentra Therapeutics Pty Ltd, priority 2017, dated 2021).

Experiments:
CDK9/T1 = CDK9/T1 (Homo sapiens, UniProt P50750); test: ADP Glo Kinase assay CDK9/T1; type: biochemical; conditions: CDK9T1; read-out: CDK inhibition, Ki (μM) CDK9T1
Method in brief: (§1)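 Other CDKs and further kinases were profiled externally by radiometric assay. In-house ADP Glo assays covered CDK4/D1 and CDK6/D3 (RB-CTF substrate, pH 7.5 Tris buffer with MgCl2, DTT, BSA) and CDK9/T1 (RBER-IRStide substrate), 40 min at 37° C.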

CDK4/D1 = CDK4/D1 (Homo sapiens, UniProt P11802); test: ADP Glo Kinase assay CDK4/D1; type: biochemical; conditions: CDK4D1; for remaining activity at 10 µM: compound at 10 μM, read-out: residual activity (%) at 10 μM CDK4D1
Method in brief: as §1

CDK6/D3 = CDK6/D3 (Homo sapiens, UniProt Q00534); test: ADP Glo Kinase assay CDK6/D3; type: biochemical; conditions: CDK6D3; for remaining activity at 10 µM: compound at 10 μM, read-out: residual activity (%) at 10 μM CDK6D3
Method: Eurofins Pharma Discovery or Reaction Biology Corporation Kinase Profiler services were used to measure inhibition of CDKs and other kinases by radiometric assay. Inhibition of CDK4/D1, CDK6/D3 and CDK9/T1 were also determined in-house using ADP Glo Kinase assays (Promega Corporation, Madison, USA). Briefly, the kinase reaction for CDK4/D1 and CDK6/D3 was performed with kinase reaction buffer ([…] Tris base pH 7.5, 20 mM MgCl2, 0.4 mM DTT), 0.1 mg/ml BSA and RB-CTF substrate (retinoblastoma protein 1 C-terminal fraction). For CDK9/CyclinT1, the kinase reaction was performed with standard assay buffer and Kinase Dilution Buffer and RBER-IRStide substrate. Serial dilutions of 1:3 were prepared for test compounds for 10 concentrations (from 10 μM to 0.5 nM). The kinase reactions were started by addition of ATP, incubated for 40 min at 37° C. and then stopped by adding 10 μL of ADP Glo reagent. After incubation at room temperature in the dark for 40 min, 20 μL of kinase detection reagent was added per well and incubated for 40 min. Luminescence was measured using an EnVision Multilabel plate reader (PerkinElmer, Buckinghamshire, UK). Positive and negative controls were performed in the presence and absence of CDK kinases, respectively. Half-maximal inhibition (IC50) values were calculated using a 4-parameter logistic non-linear regression model with Graphpad prism (Version 6.0). Apparent inhibition constants (Ki) values were calculated from Km (ATP) and IC50 values for the respective kinases.

leukemia cell lines = test: Resazurin cell viability assay on leukemia cell lines (72 h growth inhibition, GI50); type: cell-based; conditions: Homo sapiens, MV4-11 cells
Method: Compounds from Example 1 were subjected to a standard MTT (3-(4,5-dimethylthiazol-2-yl)-2,5-diphenyltetrazolium bromide) and resazurin assays on solid tumour cell lines and leukemia cell lines, respectively, as previously reported (Wang S et al., J Med Chem 47:1662-1675, 2004 and Diab S. et al. CheMedChem 9:962-972, 2014). Compound concentrations required to inhibit 50% of cell growth (GI50) were calculated using non-linear regression analysis.

CDKs and other kinases [1] = molecular target: T1, CDKs and other kinases (Homo sapiens, UniProt P06493); test: Radiometric kinase assay (Eurofins Pharma Discovery or Reaction Biology Corporation Kinase Profiler); type: biochemical; conditions: CDK1B; for Ki: read-out: CDK inhibition, Ki (μM) CDK1B; for remaining activity at 10 µM: compound at 10 μM, read-out: residual activity (%) at 10 μM CDK1B
T1 construct: other: CDK1B; residual activity (%) at 10 μM CDK1B; compound at 10 μM
Method in brief: as §1

CDKs and other kinases [2] = molecular target: T2, CDKs and other kinases (Homo sapiens, UniProt P24941); test: as above; type: biochemical; conditions: CDK2A; for Ki: read-out: CDK inhibition, Ki (μM) CDK2A; for remaining activity at 10 µM: compound at 10 μM, read-out: residual activity (%) at 10 μM CDK2A
T2 construct: other: CDK2A; residual activity (%) at 10 μM CDK2A; compound at 10 μM
Method in brief: as §1

CDKs and other kinases [3] = molecular target: T3, CDKs and other kinases (Homo sapiens, UniProt P50613); test: as above; type: biochemical; conditions: CDK7H; for Ki: read-out: CDK inhibition, Ki (μM) CDK7H; for remaining activity at 10 µM: compound at 10 μM, read-out: residual activity (%) at 10 μM CDK7H
T3 construct: other: CDK7H; residual activity (%) at 10 μM CDK7H; compound at 10 μM
Method in brief: as §1

T1 sequence (P06493 whole entry): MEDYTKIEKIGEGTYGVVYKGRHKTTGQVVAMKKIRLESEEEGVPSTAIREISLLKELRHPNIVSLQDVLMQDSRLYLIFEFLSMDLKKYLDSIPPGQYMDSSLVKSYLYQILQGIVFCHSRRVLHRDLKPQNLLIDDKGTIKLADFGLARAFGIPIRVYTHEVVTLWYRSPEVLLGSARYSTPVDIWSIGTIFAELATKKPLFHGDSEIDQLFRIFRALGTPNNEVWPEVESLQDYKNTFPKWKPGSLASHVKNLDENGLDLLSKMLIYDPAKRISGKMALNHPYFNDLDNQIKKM
Chain of CDK4/D1 (P11802 whole entry): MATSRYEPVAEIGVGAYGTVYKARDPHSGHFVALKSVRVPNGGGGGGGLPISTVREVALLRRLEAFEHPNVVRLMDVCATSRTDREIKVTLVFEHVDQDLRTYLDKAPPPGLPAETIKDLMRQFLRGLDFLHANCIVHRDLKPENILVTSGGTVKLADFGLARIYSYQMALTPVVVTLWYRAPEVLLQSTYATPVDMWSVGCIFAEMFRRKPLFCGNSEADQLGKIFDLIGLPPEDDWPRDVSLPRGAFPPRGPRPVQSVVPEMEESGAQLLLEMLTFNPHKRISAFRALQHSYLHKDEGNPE
Chain of CDK4/D1 (P24385 whole entry partner): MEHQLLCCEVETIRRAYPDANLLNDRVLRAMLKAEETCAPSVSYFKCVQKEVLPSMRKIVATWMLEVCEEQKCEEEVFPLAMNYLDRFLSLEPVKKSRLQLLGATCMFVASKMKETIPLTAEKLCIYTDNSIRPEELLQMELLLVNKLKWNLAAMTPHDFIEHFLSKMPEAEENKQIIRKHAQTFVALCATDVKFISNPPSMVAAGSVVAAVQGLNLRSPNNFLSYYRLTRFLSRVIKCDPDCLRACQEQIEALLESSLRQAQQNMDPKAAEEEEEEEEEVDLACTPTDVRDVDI
Chain of CDK6/D3 (Q00534 whole entry): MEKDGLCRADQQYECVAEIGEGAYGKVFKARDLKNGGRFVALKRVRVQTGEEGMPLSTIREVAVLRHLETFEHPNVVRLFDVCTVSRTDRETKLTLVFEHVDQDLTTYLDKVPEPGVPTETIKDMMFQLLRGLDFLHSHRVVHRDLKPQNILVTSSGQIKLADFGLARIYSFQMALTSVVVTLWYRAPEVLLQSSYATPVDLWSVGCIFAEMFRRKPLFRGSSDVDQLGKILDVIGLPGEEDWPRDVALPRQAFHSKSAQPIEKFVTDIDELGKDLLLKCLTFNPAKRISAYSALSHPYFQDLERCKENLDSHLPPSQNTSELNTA
Chain of CDK6/D3 (P30281 whole entry partner): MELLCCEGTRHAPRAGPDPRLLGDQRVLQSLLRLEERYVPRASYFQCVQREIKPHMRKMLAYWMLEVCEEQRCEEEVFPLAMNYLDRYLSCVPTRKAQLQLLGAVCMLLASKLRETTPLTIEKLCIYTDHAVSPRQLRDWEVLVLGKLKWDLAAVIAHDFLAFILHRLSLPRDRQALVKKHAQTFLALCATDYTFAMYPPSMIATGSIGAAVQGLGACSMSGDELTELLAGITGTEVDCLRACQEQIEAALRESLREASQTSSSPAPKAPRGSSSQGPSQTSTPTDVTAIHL
Chain of CDK9/T1 (P50750 whole entry): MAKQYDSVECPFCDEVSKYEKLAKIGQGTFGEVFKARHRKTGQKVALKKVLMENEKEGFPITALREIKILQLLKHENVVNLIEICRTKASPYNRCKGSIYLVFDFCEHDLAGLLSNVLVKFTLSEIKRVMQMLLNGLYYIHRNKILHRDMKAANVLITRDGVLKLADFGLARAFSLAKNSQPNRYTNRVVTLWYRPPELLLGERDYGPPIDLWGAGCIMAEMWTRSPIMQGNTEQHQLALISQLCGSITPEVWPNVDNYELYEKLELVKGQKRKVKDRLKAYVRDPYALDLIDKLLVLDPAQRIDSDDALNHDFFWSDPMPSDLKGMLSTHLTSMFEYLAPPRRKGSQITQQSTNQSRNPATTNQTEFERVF
Chain of CDK9/T1 (O60563 whole entry partner): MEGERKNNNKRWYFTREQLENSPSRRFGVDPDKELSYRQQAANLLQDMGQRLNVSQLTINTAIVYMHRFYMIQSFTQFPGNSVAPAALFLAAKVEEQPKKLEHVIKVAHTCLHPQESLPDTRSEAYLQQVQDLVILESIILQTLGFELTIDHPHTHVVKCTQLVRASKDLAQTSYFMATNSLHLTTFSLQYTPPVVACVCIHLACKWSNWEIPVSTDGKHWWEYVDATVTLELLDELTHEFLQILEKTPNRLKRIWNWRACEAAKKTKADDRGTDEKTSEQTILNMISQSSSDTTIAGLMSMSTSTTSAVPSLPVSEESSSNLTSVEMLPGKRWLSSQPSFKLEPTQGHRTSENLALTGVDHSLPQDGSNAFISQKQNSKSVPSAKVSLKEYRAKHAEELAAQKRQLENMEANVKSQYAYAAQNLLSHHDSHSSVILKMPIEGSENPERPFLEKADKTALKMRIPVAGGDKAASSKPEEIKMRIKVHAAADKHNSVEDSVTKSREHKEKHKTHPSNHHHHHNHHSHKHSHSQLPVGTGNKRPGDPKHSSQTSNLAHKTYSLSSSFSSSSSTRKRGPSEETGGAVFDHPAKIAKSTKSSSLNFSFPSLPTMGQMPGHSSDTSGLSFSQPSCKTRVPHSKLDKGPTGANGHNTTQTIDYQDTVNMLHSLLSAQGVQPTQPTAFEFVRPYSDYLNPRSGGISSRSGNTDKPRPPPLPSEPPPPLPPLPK
T3 sequence (P50613 whole entry): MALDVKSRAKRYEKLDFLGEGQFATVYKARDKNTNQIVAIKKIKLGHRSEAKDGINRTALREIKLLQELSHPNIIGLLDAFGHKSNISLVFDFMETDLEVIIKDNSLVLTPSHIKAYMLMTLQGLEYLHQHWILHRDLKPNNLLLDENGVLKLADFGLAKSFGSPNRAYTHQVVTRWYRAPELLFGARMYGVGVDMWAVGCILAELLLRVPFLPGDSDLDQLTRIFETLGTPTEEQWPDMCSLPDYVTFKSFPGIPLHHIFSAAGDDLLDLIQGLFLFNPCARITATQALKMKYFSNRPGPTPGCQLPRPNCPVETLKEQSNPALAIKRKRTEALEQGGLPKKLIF

| Structure (SMILES) | Ki (CDK9/T1) [µM] | remaining activity at 10 µM (CDK4/D1) [%] | remaining activity at 10 µM (CDK6/D3) [%] | GI50 (leukemia cell lines) [µM] | Ki (CDKs and other kinases [1]) [µM] | Ki (CDKs and other kinases [2]) [µM] | Ki (CDKs and other kinases [3]) [µM] | remaining activity at 10 µM (CDKs and other kinases [1]) [%] | remaining activity at 10 µM (CDKs and other kinases [2]) [%] | remaining activity at 10 µM (CDKs and other kinases [3]) [%] | Ki (CDK4/D1; read-out: CDK inhibition, Ki (μM) CDK4D1) [µM] | Ki (CDK6/D3; read-out: CDK inhibition, Ki (μM) CDK6D3) [µM] |
| --- | --- | --- | --- | --- | --- | --- | --- | --- | --- | --- | --- | --- |
| N[C@H]1CC[C@H](Nc2ncc(Cl)c(-c3cnc4c(Br)cc(C(F)(F)F)cn34)n2)CC1 [Compound 14, (1r,4r)-N^1-(4-(8-Bromo-6-(trifluoromethyl)imidazo[1,2-a]pyridin-3-yl)-5-chloropyrimidin-2-yl)cyclohexane-1,4-diamine] | 0.007 | 3 | 17 | 0.368 ± 0.129 | 0.755 | 0.115 | 0.04 |  |  |  |  |  |
| Fc1cnc(N[C@H]2CC[C@H](NC3CCOCC3)CC2)nc1-c1cnc2ccccn12 [Compound 33, (1r,4r)-N^1-(5-Fluoro-4-(imidazo[1,2-a]pyridin-3-yl)pyrimidin-2-yl)-N4-(tetrahydro-2H-pyran-4-yl) cyclohexane-1,4-diamine] | 0.022 | 7 | 12 | 0.004 ± 0.001 |  |  |  | 11 | 13 | 7 |  |  |
| Cc1cnc(N[C@H]2CC[C@H](N)CC2)nc1-c1cnc2ccc(Nc3ccncn3)cn12 [Compound 116, (1r,4r)-N^1-(5-Methyl-4-(6-(pyrimidin-4-ylamino)imidazo [1,2-a]pyridin-3-yl)pyrimidin-2-yl)cyclohexane-1,4-diamine] | 0.106 | 18 | 86 | 0.885 ± 0.137 |  |  |  |  |  |  |  |  |
| COC(=O)CN[C@H]1CC[C@H](Nc2ncc(F)c(-c3cnc4ccccn34)n2)CC1 [Compound 15, Methyl ((1r,4r)-4-((5-fluoro-4-(imidazo[1,2-a]pyridin-3-yl)pyrimidin-2-yl)amino)cyclohexyl)glycinate] | 0.014 | 0 | 13 | 0.05 ± 0.009 | 0.07 | 0.027 | 0.15 |  |  |  |  |  |
| Cc1ccc2ncc(-c3nc(N[C@H]4CC[C@H](N)CC4)ncc3F)n2c1 [Compound 4, (1r,4r)-N^1-(5-Fluoro-4-(6-methylimidazo[1,2-a]pyridin-3-yl)pyrimidin-2-yl)cyclohexane-1,4-diamine] | 0.003 | 0 | 2 | 0.004 ± 0.001 |  |  |  | 1 | 2 |  |  |  |
| Cc1cnc(N[C@H]2CC[C@H](N)CC2)nc1-c1cnc2ccc(Nc3cncc(F)c3)cn12 [Compound 66, (1r,4r)-N^1-(4-(6-((5-Fluoropyridin-3-yl)amino)imidazo [1,2-a]pyridin-3-yl)-5-methylpyrimidin-2-yl)cyclohexane-1,4-diamine] | 0.007 |  |  |  | 1.26 | 0.18 | 3.25 |  |  |  | 0.76 | 0.33 |
| N[C@H]1CC[C@H](Nc2ncc(F)c(-c3cnc4ccc(F)cn34)n2)CC1 [Compound 2, (1r,4r)-N^1-(5-Fluoro-4-(6-fluoroimidazo[1,2-a]pyridin-3-yl)pyrimidin-2-yl)cyclohexane-1,4-diamine] | 0.005 |  | 5 | 0.006 ± 0.001 | 0.085 | 0.012 | 0.034 |  |  |  |  |  |

More lines, now with the values ahead:

| Ki (CDK9/T1) [µM] | remaining activity at 10 µM (CDK4/D1) [%] | remaining activity at 10 µM (CDK6/D3) [%] | GI50 (leukemia cell lines) [µM] | Ki (CDKs and other kinases [1]) [µM] | Ki (CDKs and other kinases [2]) [µM] | Ki (CDKs and other kinases [3]) [µM] | remaining activity at 10 µM (CDKs and other kinases [1]) [%] | remaining activity at 10 µM (CDKs and other kinases [2]) [%] | remaining activity at 10 µM (CDKs and other kinases [3]) [%] | Ki (CDK4/D1; read-out: CDK inhibition, Ki (μM) CDK4D1) [µM] | Ki (CDK6/D3; read-out: CDK inhibition, Ki (μM) CDK6D3) [µM] | Structure (SMILES) |
| --- | --- | --- | --- | --- | --- | --- | --- | --- | --- | --- | --- | --- |
| 0.203 | 35 | 66 | 0.383 ± 0.119 | 6.05 | 2.66 | 5.19 |  |  |  |  |  | Cc1cnc(N[C@H]2CC[C@H](N)CC2)nc1-c1cnc2ccc(Nc3cccnn3)cn12 [Compound 71, (1r,4r)-N^1-(5-Methyl-4-(6-(pyridazin-3-ylamino)imidazo [1,2-a]pyridin-3-yl)pyrimidin-2-yl)cyclohexane-1,4-diamine] |
| > 5 | 96 | 84 | > 10 |  |  |  | 87 | 79 | 98 |  |  | Cc1cnc(N[C@]23C[C@@]4(C)C[C@](C)(C[C@](O)(C4)C2)C3)nc1-c1cnc2ccc(-c3ccccc3)cn12 [Compound 100, (1s,3R,5S,7r)-3,5-Dimethyl-7-((5-methyl-4-(6-phenylimidazo[1,2-a]pyridin-3-yl)pyrimidin-2-yl)amino)adamantan-1-ol] |
| 0.141 | -16 | 18 | 0.506 ± 0.104 |  |  | 0.281 | -1 | -1 |  |  |  | CS(=O)(=O)N1CCC(Nc2ncc(F)c(-c3cnc4ccccn34)n2)CC1 [Compound 24, 5-Fluoro-4-(imidazo[1,2-a]pyridin-3-yl)-N-(1-(methylsulfonyl)piperidin-4-yl)pyrimidin-2-amine] |
| 0.035 | 11 | 34 | 0.066 ± 0.007 | 3.81 | 0.35 | 0.38 |  |  |  |  |  | Cc1cnc(N[C@H]2CC[C@H](N)CC2)nc1-c1cnc2ccccn12 [Compound 8, (1r,4r)-N^1-(4-(Imidazo[1,2-a]pyridin-3-yl)-5-methylpyrimidin-2-yl)cyclohexane-1,4-diamine] |
| 0.11 | 0 | 0 | 0.018 ± 0.004 |  |  |  | 29 | 5 | 6 |  |  | Cc1cnc(N[C@H]2CC[C@H](N)CC2)nc1-c1cnc2cc(-c3cccnc3)ccn12 [Compound 54, (1r,4r)-N^1-(5-Methyl-4-(7-(pyridin-3-yl)imidazo[1,2-a]pyridin-3-yl)pyrimidin-2-yl)cyclohexane-1,4-diamine] |
| 0.2 | 61 | 54 | 0.243 ± 0.053 |  |  |  |  |  |  |  |  | N[C@H]1CC[C@H](Nc2ncc(-c3ccccc3)c(-c3cnc4ccc(-c5ccccc5)cn34)n2)CC1 [Compound 80, (1r,4r)-N^1-(5-Phenyl-4-(6-phenylimidazo[1,2-a]pyridin-3-yl)pyrimidin-2-yl)cyclohexane-1,4-diamine] |
| 0.029 |  | 32 | 0.01 ± 0.001 |  | 0.001 |  |  |  | 50 |  |  | CS(=O)(=O)N[C@H]1CC[C@H](Nc2ncc(F)c(-c3cnc4ccccn34)n2)CC1 [Compound 16, N-((1r,4r)-4-((5-Fluoro-4-(imidazo[1,2-a]pyridin-3-yl)pyrimidin-2-yl)amino)cyclohexyl)methanesulfonamide] |
| 0.036 | 0 | 6 |  | 0.154 | 0.026 | 0.018 |  |  |  |  |  | N[C@H]1CC[C@H](Nc2ncc(Cl)c(-c3cnc4cc(Nc5cncnc5)ccn34)n2)CC1 [Compound 118, (1r,4r)-N^1-(5-Chloro-4-(7-(pyrimidin-5-ylamino)imidazo [1,2-a]pyridin-3-yl)pyrimidin-2-yl)cyclohexane-1,4-diamine] |
